Experimental data as given in patent US12583854B2, “KRAS G12C inhibitors and methods of using the same” (Amgen Inc., priority 2018, dated 2026).

Target: GDP-bound KRAS protein (aa 1-169), containing both G12C and C118A amino acid substitutions (Homo sapiens, UniProt P01116, C118A/G12C)
Assay: Coupled Nucleotide Exchange Assay
Assay type: biochemical
Conditions: 5 min compound pre-incubation; SOS-mediated nucleotide exchange, AlphaScreen
Method: Following compound pre-incubation, purified SOS protein (aa 564-1049) and GTP (Roche 10106399001) were added to the assay wells and incubated for an additional 30 min. To determine the extent of inhibition of SOS-mediated nucleotide exchange, purified GST-tagged cRAF (aa 1-149), nickel chelate AlphaLISA acceptor beads (PerkinElmer AL108R), and AlphaScreen glutathione donor beads (PerkinElmer 6765302) were added to the assay wells and incubated for 10 minutes. The assay plates were then read on a PerkinElmer EnVision Multilabel Reader, using AlphaScreen® technology, and data were analyzed using a 4-parameter logistic model to calculate IC50 values.

Chain of GDP-bound KRAS protein (aa 1-169), containing both G12C and C118A amino acid substitutions (P01116 1-169 isoform P01116-2 G12C/C118A): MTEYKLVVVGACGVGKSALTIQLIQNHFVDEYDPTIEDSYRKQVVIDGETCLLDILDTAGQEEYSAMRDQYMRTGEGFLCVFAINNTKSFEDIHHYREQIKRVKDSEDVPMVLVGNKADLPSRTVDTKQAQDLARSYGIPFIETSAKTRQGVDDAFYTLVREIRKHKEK

SMILES	Coupled exchange IC50 (5 min; μM) [µM]
C=CC(=O)N1CCN(c2c(C#N)c(=O)n(-c3c(C)ccnc3C(C)C)c3nc(-c4ccccc4F)c(Cl)cc23)C[C@H]1C (single isomer, unassigned) [Example 6.6]	0.92
C=CC(=O)N1C[C@H](C)N(c2c(C#N)c(=O)n(-c3c(C)ccnc3C(C)C)c3nc(-c4ccccc4F)c(Cl)cc23)C[C@H]1C (single isomer, unassigned) [Example 7.5]	2.27
C=CC(=O)N1CCN(c2c(C#N)c(=O)n(-c3c(C(C)C)ccnc3C(C)C)c3nc(-c4ccccc4F)c(F)cc23)CC1 [Example 10.4, 4-(4-acryloylpiperazin-1-yl)-1-(2,4-diisopropylpyridin-3-yl)-6-fluoro-7-(2-fluorophenyl)-2-oxo-1,2-dihydro-1,8-naphthyridine-3-carbonitrile]	0.44
C=CC(=O)N1CCN(c2c(C#N)c(=O)n(-c3c(C)ccnc3C(C)C)c3nc(Cl)c(Cl)cc23)CC1 [Example 9.2, 4-(4-acryloylpiperazin-1-yl)-6,7-dichloro-1-(2-isopropyl-4-methylpyridin-3-yl)-2-oxo-1,2-dihydro-1,8-naphthyridine-3-carbonitrile]	36
C=CC(=O)N1CCN(c2c(C#N)c(=O)n(-c3c(C(C)C)ccnc3C(C)C)c3nc(-c4ccccc4C)c(F)cc23)CC1 [Example 10.3, 4-(4-acryloylpiperazin-1-yl)-1-(2,4-diisopropylpyridin-3-yl)-6-fluoro-2-oxo-7-(o-tolyl)-1,2-dihydro-1,8-naphthyridine-3-carbonitrile]	0.83
C=CC(=O)N1[C@H](C)CN(c2c(C#N)c(=O)n(-c3c(C)ccnc3C(C)C)c3nc(-c4ccccc4F)c(Cl)cc23)C[C@@H]1C (single isomer, unassigned) [Example 7.6]	0.32
C=CC(=O)N1CCN(c2c(C#N)c(=O)n(-c3c(C(C)C)ncnc3C(C)C)c3nc(-c4ccccc4CN(C)C)c(Cl)cc23)CC1 [Example 1, 4-(4-Acryloylpiperazin-1-yl)-6-chloro-1-(4,6-diisopropylpyrimidin-5-yl)-7-(2-((dimethylamino)methyl)phenyl)-2-oxo-1,2-dihydro-1,8-naphthyridine-3-carbonitrile]	4.13
C=CC(=O)N1CCN(c2c(C#N)c(=O)n(-c3c(C)ccnc3C(C)C)c3nc(-c4ccccc4C(C)C)c(Cl)cc23)CC1 (single isomer, unassigned) [Example 11.2, 4-(4-acryloylpiperazin-1-yl)-6-chloro-1-(2-isopropyl-4-methylpyridin-3-yl)-7-(2-isopropylphenyl)-2-oxo-1,2-dihydro-1,8-naphthyridine-3-carbonitrile]	1.96
C=CC(=O)N1CCN(c2c(C#N)c(=O)n(-c3c(C)ccnc3C(C)C)c3nc(-c4ccccc4F)c(Cl)cc23)CC1 [Example 6.4, 4-(4-acryloylpiperazin-1-yl)-6-chloro-7-(2-fluorophenyl)-1-(2-isopropyl-4-methylpyridin-3-yl)-2-oxo-1,2-dihydro-1,8-naphthyridine-3-carbonitrile]	0.73
C=CC(=O)N1CCN(c2c(C#N)c(=O)n(-c3c(C(C)C)ccnc3C(C)C)c3nc(-c4ccccc4C)c(F)cc23)CC1 [Example 10.2, 4-(4-acryloylpiperazin-1-yl)-1-(2,4-diisopropylpyridin-3-yl)-6-fluoro-2-oxo-7-(o-tolyl)-1,2-dihydro-1,8-naphthyridine-3-carbonitrile]	0.45
C=CC(=O)N1CCN(c2c(C#N)c(=O)n(-c3c(C)ccnc3C(C)C)c3nc(-c4ccccc4F)c(Cl)cc23)C[C@@H]1C [Example 6.1, (S)-4-(4-acryloyl-3-methylpiperazin-1-yl)-6-chloro-7-(2-fluorophenyl)-1-(2-isopropyl-4-methylpyridin-3-yl)-2-oxo-1,2-dihydro-1,8-naphthyridine-3-carbonitrile]	1.57
C=CC(=O)N1C[C@H](C)N(c2c(C#N)c(=O)n(-c3c(C)ccnc3C(C)C)c3nc(-c4ccccc4F)c(Cl)cc23)C[C@H]1C (single isomer, unassigned) [Example 7.4]	17.6
C=CC(=O)N1CCN(c2c(C#N)c(=O)n(-c3c(N(C)C)ccnc3C(C)C)c3nc(-c4ccccc4F)c(Cl)cc23)CC1 (single isomer, unassigned) [Example 8.5, 4-(4-acryloylpiperazin-1-yl)-6-chloro-1-(4-(dimethylamino)-2-isopropylpyridin-3-yl)-7-(2-fluorophenyl)-2-oxo-1,2-dihydro-1,8-naphthyridine-3-carbonitrile]	3.26
C=CC(=O)N1CCN(c2c(C#N)c(=O)n(-c3c(CN(C)C)ccnc3C(C)C)c3nc(-c4ccccc4F)c(Cl)cc23)CC1 [Example 2.2, 4-(4-acryloylpiperazin-1-yl)-6-chloro-1-(4-((dimethylamino)methyl)-2-isopropylpyridin-3-yl)-7-(2-fluorophenyl)-2-oxo-1,2-dihydro-1,8-naphthyridine-3-carbonitrile]	5.71
C=CC(=O)N1CCN(c2c(C#N)c(=O)n(-c3c(C(C)C)ccnc3C(C)C)c3nc(-c4ccccc4F)c(F)cc23)CC1 [Example 10.5, 4-(4-acryloylpiperazin-1-yl)-1-(2,4-diisopropylpyridin-3-yl)-6-fluoro-7-(2-fluorophenyl)-2-oxo-1,2-dihydro-1,8-naphthyridine-3-carbonitrile]	0.36
C=CC(=O)N1CCN(c2c(C#N)c(=O)n(-c3c(C(C)C)ncnc3C(C)C)c3nc(Cl)c(Cl)cc23)CC1 [Example 9.1, 4-(4-acryloylpiperazin-1-yl)-6,7-dichloro-1-(4,6-diisopropylpyrimidin-5-yl)-2-oxo-1,2-dihydro-1,8-naphthyridine-3-carbonitrile]	25.1
C=CC(=O)N1CCN(c2c(C#N)c(=O)n(-c3c(CN(C)C)ccnc3C(C)C)c3nc(-c4ccccc4F)c(Cl)cc23)CC1 [Example 2, 4-(4-Acryloylpiperazin-1-yl)-6-chloro-1-(4-((dimethylamino)methyl)-2-isopropylpyridin-3-yl)-7-(2-fluorophenyl)-2-oxo-1,2-dihydro-1,8-naphthyridine-3-carbonitrile]	0.061
C=CC(=O)N1CCN(c2c(C#N)c(=O)n(-c3c(CN(C)C)ccnc3C(C)C)c3nc(-c4ccccc4F)c(Cl)cc23)CC1 [Example 2.1, 4-(4-acryloylpiperazin-1-yl)-6-chloro-1-(4-((dimethylamino)methyl)-2-isopropylpyridin-3-yl)-7-(2-fluorophenyl)-2-oxo-1,2-dihydro-1,8-naphthyridine-3-carbonitrile]	0.18
C=CC(=O)N1CCN(c2c(C#N)c(=O)n(-c3c(C(C)C)ccnc3C(C)C)c3nc(Cl)c(F)cc23)CC1 [Example 9, 4-(4-Acryloylpiperazin-1-yl)-7-chloro-1-(2,4-diisopropylpyridin-3-yl)-6-fluoro-2-oxo-1,2-dihydro-1,8-naphthyridine-3-carbonitrile]	82.1
